Numbered stars: 1 amine (or outer) side, 2 acyl side, 3 side chain; on linkers, the order of the positions; unused ones are H or OH. Square brackets hold non-standard residues; d marks the D form. Peptide text beside a SMILES is read from it. X1 = NN([C@H](Cc1ccccc1)C(=O)[*:2])[*:1]; Orn(Nα-NH2) = NCCC[C@H](NN)C(=O)O; Orn = NCCC[C@H](N)C(=O)O
Key:
Staphylococcus aureus = assay: Antibacterial activity against Staphylococcus aureus 635 assessed as growth inhibition by microbroth dilution assay; format: functional
Enterococcus faecium = assay: Antibacterial activity against Enterococcus faecium 1450 assessed as growth inhibition by microbroth dilution assay; format: functional
Enterobacter cloacae = assay: Antibacterial activity against Enterobacter cloacae 1454 assessed as growth inhibition by microbroth dilution assay; format: functional
Pseudomonas aeruginosa = assay: Antibacterial activity against Pseudomonas aeruginosa 1419 assessed as growth inhibition by microbroth dilution assay; format: functional
Acinetobacter baumannii = assay: Antibacterial activity against Acinetobacter baumannii 5075 assessed as growth inhibition by microbroth dilution assay; format: functional; conditions: AB5075
Klebsiella pneumoniae = assay: Antibacterial activity against Klebsiella pneumoniae 1433 assessed as growth inhibition by microbroth dilution assay; format: functional
Erythrocyte = assay: Hemolytic activity in human RBC assessed as hemolysis at 50 uM; format: ADME, cell-based
[1] = Hemolytic activity in human RBC assessed as hemolysis at 50 uM relative to control; format: ADME, cell-based, Erythrocyte; conditions: red blood cells (erythrocytes), read-out: Activity

| Compound | MIC (Staphylococcus aureus) | MIC (Enterococcus faecium) | MIC (Enterobacter cloacae) | MIC (Pseudomonas aeruginosa) | MIC (Acinetobacter baumannii) | MIC (Klebsiella pneumoniae) | Activity (Erythrocyte) | hemolysis at 50 µM [1] |
| --- | --- | --- | --- | --- | --- | --- | --- | --- |
| CC(C)C[C@@H]1NC(=O)[C@H](CCCN)N(N)C(=O)[C@H](C(C)C)NC(=O)[C@@H]2CCCN2C(=O)[C@@H](Cc2ccccc2)N(N)C(=O)[C@H](CC(C)C)NC(=O)[C@H](CCCN)NC(=O)[C@H](C(C)C)NC(=O)[C@@H]2CCCN2C(=O)[C@@H](Cc2ccccc2)NC1=O (cyclo(L[dF]PV[Orn]L[X1]PV[Orn(Nα-NH2)])) | 2 µM | 3 µM | 30 µM | 15 µM | 6.5 µM | 45 µM | – | – |
| CC(C)C[C@@H]1NC(=O)[C@H](CCCN)NC(=O)[C@H](C(C)C)NC(=O)[C@@H]2CCCN2C(=O)[C@@H](Cc2ccccc2)NC(=O)[C@H](CC(C)C)NC(=O)[C@H](CCCN)N(N)C(=O)[C@H](C(C)C)NC(=O)[C@@H]2CCCN2C(=O)[C@@H](Cc2ccccc2)NC1=O (cyclo(L[dF]PV[Orn]L[dF]PV[Orn(Nα-NH2)])) | 2 µM | 3 µM | 30 µM | 13 µM | 6.5 µM | 40 µM | – | – |
| CC(C)C[C@@H]1NC(=O)[C@H](CCCN)NC(=O)[C@H](C(C)C)NC(=O)[C@@H]2CCCN2C(=O)[C@@H](Cc2ccccc2)N(N)C(=O)[C@H](CC(C)C)NC(=O)[C@H](CCCN)NC(=O)[C@H](C(C)C)NC(=O)[C@@H]2CCCN2C(=O)[C@@H](Cc2ccccc2)N(N)C1=O (cyclo(L[X1]PV[Orn]L[X1]PV[Orn])) | 4 µM | 4 µM | > 50 µM | 35 µM | 12.5 µM | > 50 µM | Toxic | – |
| CC(C)C[C@@H]1NC(=O)[C@H](CCCN)NC(=O)[C@H](C(C)C)NC(=O)[C@@H]2CCCN2C(=O)[C@@H](Cc2ccccc2)N(N)C(=O)[C@H](CC(C)C)NC(=O)[C@H](CCCN)N(N)C(=O)[C@H](C(C)C)NC(=O)[C@@H]2CCCN2C(=O)[C@@H](Cc2ccccc2)N(N)C1=O (cyclo(L[X1]PV[Orn]L[X1]PV[Orn(Nα-NH2)])) | 3 µM | 3 µM | 35 µM | 20 µM | 6.5 µM | 50 µM | – | – |
| CC(C)C[C@@H]1NC(=O)[C@H](CCCN)N(N)C(=O)[C@H](C(C)C)NC(=O)[C@@H]2CCCN2C(=O)[C@@H](Cc2ccccc2)NC(=O)[C@H](CC(C)C)NC(=O)[C@H](CCCN)N(N)C(=O)[C@H](C(C)C)NC(=O)[C@@H]2CCCN2C(=O)[C@@H](Cc2ccccc2)NC1=O (cyclo(L[dF]PV[Orn(Nα-NH2)]L[dF]PV[Orn(Nα-NH2)])) | 2 µM | 2 µM | 20 µM | 10 µM | 4 µM | 45 µM | – | 16% |
| CC(C)C[C@@H]1NC(=O)[C@H](CCCN)NC(=O)[C@H](C(C)C)NC(=O)[C@@H]2CCCN2C(=O)[C@@H](Cc2ccccc2)N(N)C(=O)[C@H](CC(C)C)NC(=O)[C@H](CCCN)NC(=O)[C@H](C(C)C)NC(=O)[C@@H]2CCCN2C(=O)[C@@H](Cc2ccccc2)NC1=O (cyclo(L[dF]PV[Orn]L[X1]PV[Orn])) | 4 µM | 5 µM | 40 µM | 20 µM | 6 µM | 45 µM | – | – |
| CC(C)C[C@@H]1NC(=O)[C@H](CCCN)N(N)C(=O)[C@H](C(C)C)NC(=O)[C@@H]2CCCN2C(=O)[C@@H](Cc2ccccc2)N(N)C(=O)[C@H](CC(C)C)NC(=O)[C@H](CCCN)N(N)C(=O)[C@H](C(C)C)NC(=O)[C@@H]2CCCN2C(=O)[C@@H](Cc2ccccc2)NC1=O (cyclo(L[dF]PV[Orn(Nα-NH2)]L[X1]PV[Orn(Nα-NH2)])) | 2 µM | 2 µM | > 50 µM | 12 µM | 6 µM | > 50 µM | – | – |
| CC(C)C[C@@H]1NC(=O)[C@H](CCCN)N(N)C(=O)[C@H](C(C)C)NC(=O)[C@@H]2CCCN2C(=O)[C@@H](Cc2ccccc2)N(N)C(=O)[C@H](CC(C)C)NC(=O)[C@H](CCCN)N(N)C(=O)[C@H](C(C)C)NC(=O)[C@@H]2CCCN2C(=O)[C@@H](Cc2ccccc2)N(N)C1=O (cyclo(L[X1]PV[Orn(Nα-NH2)]L[X1]PV[Orn(Nα-NH2)])) | 2 µM | 2 µM | > 50 µM | 15 µM | 5 µM | > 50 µM | Toxic | – |
| CC(C)C[C@@H]1NC(=O)[C@H](CCCN)NC(=O)[C@H](C(C)C)NC(=O)[C@@H]2CCCN2C(=O)[C@@H](Cc2ccccc2)N(N)C(=O)[C@H](CC(C)C)NC(=O)[C@H](CCCN)N(N)C(=O)[C@H](C(C)C)NC(=O)[C@@H]2CCCN2C(=O)[C@@H](Cc2ccccc2)NC1=O (cyclo(L[dF]PV[Orn(Nα-NH2)]L[X1]PV[Orn])) | 2 µM | 3 µM | 15 µM | 15 µM | 6.5 µM | 45 µM | – | – |
| CC(C)C[C@@H]1NC(=O)[C@H](CCCN)NC(=O)[C@H](C(C)C)NC(=O)[C@@H]2CCCN2C(=O)[C@@H](Cc2ccccc2)NC(=O)[C@H](CC(C)C)NC(=O)[C@H](CCCN)NC(=O)[C@H](C(C)C)NC(=O)[C@@H]2CCCN2C(=O)[C@@H](Cc2ccccc2)NC1=O (cyclo(L[dF]PV[Orn]L[dF]PV[Orn])) | – | – | – | – | – | – | – | 22% |
| CC(C)C[C@@H]1NC(=O)[C@H](CCCN)NC(=O)[C@H](C(C)C)NC(=O)[C@@H]2CCCN2C(=O)[C@@H](Cc2ccccc2)NC(=O)[C@H](CC(C)C)NC(=O)[C@H](CCCN)NC(=O)[C@H](C(C)C)NC(=O)[C@@H]2CCCN2C(=O)[C@@H](Cc2ccccc2)NC1=O (cyclo(V[Orn]L[dF]PV[Orn]L[dF]P)) | 3 µM | 3 µM | 35 µM | 20 µM | 6.5 µM | 40 µM | – | – |
